Experimental data from PMC5572576 (The Lancet. Oncology, 2017).
Several values for one entry are separate records, joined by “and”; a condition that tells them apart may be missing. Identical values can stand only once.

Assays:
[1] = tested on: patients with R/R AML; assay: Phase 1/2 study, antileukemic response; assay type: in vivo, human; conditions: for Median overall survival / Median response duration: (95% CI)
[2] = tested on: c-Kit; conditions: cell-based assays; cited from earlier work
[3] = target: AXL; conditions: panel of 78 kinases; cited from earlier work
[4] = Plasma pharmacokinetics after oral once-daily dosing; assay type: in vivo, human; conditions: oral daily dosing 20–450 mg
[5] = target: anaplastic lymphoma kinase (ALK); conditions: panel of 78 kinases; cited from earlier work
[6] = tested on: FLT3-ITD receptors in Molm14 cells; assay: Ex vivo FLT3 plasma inhibitory activity; assay type: cell-based; conditions: by Day 8, majority of patients receiving ≥80 mg
[7] = FLT3mut+ receiving ≥80mg/d (n=169)

Q: With CCc1nc(C(N)=O)c(Nc2ccc(N3CCC(N4CCN(C)CC4)CC3)c(OC)c2)nc1NC1CCOCC1 [gilteritinib] as the compound, how does the CRc ([1]; FAS (n=249)) read?
A: The CRc was 75 (30% [25, 36]) n (% [95% CI]).

Q: And the ORR ([1]; FAS (n=249))?
A: The ORR was 100 (40% [34, 47]) n (% [95% CI]).

Q: What about the Median overall survival ([1]; FAS (n=249)) of the same compound?
A: Its Median overall survival is 25 (20, 30) weeks.

Q: What about the Median response duration ([1]; FAS (n=249)) of the same compound?
A: The Median response duration was 17 (14, 29) weeks.

Q: What about the CRc ([1]; FLT3WT (n=58)) of the same compound?
A: The CRc was 5 (9% [3, 19]) n (% [95% CI]).

Q: What about the Median overall survival ([1]; FLT3WT (n=58)) of the same compound?
A: The Median overall survival was 17 (11, 21) weeks.

Q: And the Median response duration ([1]; FLT3WT (n=58))?
A: The Median response duration was 12 (3, 17) weeks.

Q: What about the CR ([1]; FLT3mut+ all patients (n=191)) of the same compound?
A: Its CR is 18 (9% [6, 15]) n (% [95% CI]).

Q: What about the CRc ([1]; FLT3mut+ all patients (n=191)) of the same compound?
A: Its CRc is 70 (37% [30, 44]) n (% [95% CI]).

Q: And the CRi ([1]; FLT3mut+ all patients (n=191))?
A: Its CRi is 42 (22% [16, 29]) n (% [95% CI]).

Q: What about the CRp ([1]; FLT3mut+ all patients (n=191)) of the same compound?
A: The CRp was 10 (5% [3, 9]) n (% [95% CI]).

Q: And the ORR ([1]; FLT3mut+ all patients (n=191))?
A: The ORR was 93 (49% [41, 56]) n (% [95% CI]).

Q: What about the PR ([1]; FLT3mut+ all patients (n=191)) of the same compound?
A: The PR was 23 (12% [8, 18]) n (% [95% CI]).

Q: What about the Median overall survival ([1]; FLT3mut+ all patients (n=191)) of the same compound?
A: Its Median overall survival is 30 (23, 33) weeks.

Q: And the Median response duration ([1]; FLT3mut+ all patients (n=191))?
A: The Median response duration was 20 weeks and 20 (14, 33) weeks.

Q: What about the Transplant rate ([1]; FLT3mut+ receiving ≥80 mg/d) of the same compound?
A: Its Transplant rate is 19%.

Q: And the CR [1, 7]?
A: The CR was 18 (11% [6, 16]) n (% [95% CI]).

Q: And the CRi [1, 7]?
A: The CRi was 41 (24% [18, 31]) n (% [95% CI]).

Q: What about the CRp [1, 7] of the same compound?
A: Its CRp is 10 (6% [3, 11]) n (% [95% CI]).

Q: And the ORR [1, 7]?
A: The ORR was 88 (52% [44, 60]) n (% [95% CI]).

Q: And the PR [1, 7]?
A: The PR was 19 (11% [7, 17]) n (% [95% CI]).

Q: And the Median overall survival [1, 7]?
A: Its Median overall survival is 31 weeks and 31 (24, 59) weeks.

Q: What about the Median response duration [1, 7] of the same compound?
A: The Median response duration was 20 weeks and 20 (14, 33) weeks.

Q: What about the “Median OS” value ([1]; FLT3mut+ responders who underwent HSCT (n=32)) of the same compound?
A: Its value is 47 weeks.

Q: And the Transplant rate ([1]; FLT3mut+ who achieved PR or better)?
A: Its Transplant rate is 34%.

Q: And the Transplant rate ([1]; FLT3mut+ with CRc and no prior transplant (n=47))?
A: Its Transplant rate is 47%.

Q: What about the Transplant rate ([1]; entire FLT3mut+ population) of the same compound?
A: Its Transplant rate is 19%.

Q: What about the IC50 [2] of the same compound?
A: The IC50 was 102 nM.

Q: What about the kinase inhibition [3] of the same compound?
A: The kinase inhibition was “strong inhibitor”.

Q: And the “Steady state plasma levels reached” value [4]?
A: Its value is 15 treatment Day.

Q: And the kinase inhibition [5]?
A: The kinase inhibition was “strong inhibitor”.

Q: What about the FLT3 phosphorylation inhibition [6] of the same compound?
A: The FLT3 phosphorylation inhibition was ≥ 90%.
